Assay results reported in patent US7169786B2, “Isoxazoline derivatives as anti-depressants” (priority 2001, dated 2007).
Read-outs that look alike come from different tables or passages of the source.

How the values were obtained:
[1] = target: T1, h5-HT transporter (Homo sapiens, UniProt P31645); experiment: Radioligand binding experiment for 5-HT transporter ([3H]paroxetine, human platelet membranes)
T1 construct: Human platelet membranes (Oceanix Biosciences Corporation, Hanover, Md., USA) were thawed; tissue Oceanix Biosciences Corporation, Hanover, Md., USA; host or cells: human platelet membranes
Procedure: (§1) The interaction of the compounds of Formula (I) with hα2-receptors and h5-HT-transporters was assessed in in vitro radioligand binding experiments. In general, a low concentration of a radioligand with a high binding affinity for a particular receptor or transporter is incubated with a sample of a tissue preparation enriched in a particular receptor or transporter or with a preparation of cells expressing cloned human receptors in a buffered medium. During the incubation, the radioligand binds to the receptor or transporter. When equilibrium of binding is reached, the receptor bound radioactivity is separated from the non-bound radioactivity, and the receptor- or transporter-bound activity is counted. The interaction of the test compounds with the receptor is assessed in competition binding experiments. Various concentrations of the test compound are added to the incubation mixture containing the receptor- or transporter preparation and the radioligand. The test compound in proportion to its binding affinity and its concentration inhibits binding of the radioligand. The radioligand used for hα2A, hα2B and hα2C receptor binding was [^3H]-raulwolscine and for the h5-HT transporter was [^3H]paroxetine.
Human platelet membranes (Oceanix Biosciences Corporation, Hanover, Md., USA) were thawed, diluted in buffer (Tris-HCl 50 mM, 120 mM NaCl and 5 mM KCl) and quickly (max 3 s) homogenised with an Ultraturrax homogenizer. […] Filters were rinsed extensively with ice-cold buffer and radioactivity on the filters was counted in a Topcount liquid scintillation counter (Packard, Meriden, Conn.). Data were expressed as cpm. Imipramine (at 1 μM final concentration) was used to determine the non-specific binding.
(§2) Data from assays in the presence of compound were calculated as a percentage of total binding measured in the absence of test compound. Inhibition curves, plotting percent of total binding versus the log value of the concentration of the test compound, were automatically generated, and sigmoidal inhibition curves were fitted using non-linear regression. The pIC50 values of test compounds were derived from individual curves.

[2] = target: T2, hα2B receptor (Homo sapiens, UniProt P18089); experiment: Radioligand binding experiment for hα2B receptor ([3H]-raulwolscine)
T2 construct: expressed in transfected cells
T2 sequence (P18089 1-450): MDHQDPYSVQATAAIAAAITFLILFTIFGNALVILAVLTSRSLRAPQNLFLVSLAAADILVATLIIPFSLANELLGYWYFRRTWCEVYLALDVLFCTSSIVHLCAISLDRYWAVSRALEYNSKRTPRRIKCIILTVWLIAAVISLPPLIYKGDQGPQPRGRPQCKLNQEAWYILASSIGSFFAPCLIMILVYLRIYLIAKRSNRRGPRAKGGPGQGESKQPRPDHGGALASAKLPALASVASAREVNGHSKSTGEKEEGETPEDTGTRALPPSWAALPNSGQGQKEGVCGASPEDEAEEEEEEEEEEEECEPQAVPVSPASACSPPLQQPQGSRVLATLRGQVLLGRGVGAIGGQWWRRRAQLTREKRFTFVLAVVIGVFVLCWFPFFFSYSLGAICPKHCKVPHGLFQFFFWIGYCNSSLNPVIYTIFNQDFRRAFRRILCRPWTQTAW
Procedure: as §1
(§3) CHO cells, stabile transfected with human adrenergic-α2A-, -α2B or α2C receptor cDNA, were cultured in Dulbecco's Modified Eagle's Medium (DMEM)/Nutrient mixture Ham's F12 (ratio 1:1)(Gibco, Gent-Belgium) supplemented with 10% heat inactivated fetal calf serum (Life Technologies, Merelbeke-Belgium) and antibiotics (100 IU/ml penicillin G, 100 μg/ml streptomycin sulphate, 110 μg/ml pyruvic acid and 100 μg/ml L-glutamine). One day before collection, cells were induced with 5 mM sodiumbutyrate. Upon 80–90% of confluence, cells were scraped in phosphate buffered saline without Ca^2+ and Mg^2+ and collected by centrifugation at 1500×g for 10 min. The cells were homogenised in Tris-HCl 50 mM using an Ultraturrax homogenizer and centrifuged for 10 min at 23,500×g. The pellet was washed once by resuspension and rehomogenization and the final pellet was resuspended in Tris-HCl, divided in 1 ml aliquots and stored at −70° C.
(§4) Membranes were thawed and re-homogenized in incubation buffer (glycylglycine 25 mM, pH 8.0). […] Filters were rinsed extensively with ice-cold rinsing buffer (Tris-HCl 50 mM pH 7.4). Filter-bound radioactivity was determined by scintillation counting in a Topcount (Packard, Meriden, Conn.) and results were expressed as counts per minute (cpm). Non-specific binding was determined in the presence of 1 μM oxymetazoline for hα2A- and hα2B receptors and 1 μM spiroxatrine for hα2C receptors.
as §2

[3] = target: T3, hα2C receptor (Homo sapiens, UniProt P18825); experiment: Radioligand binding experiment for hα2C receptor ([3H]-raulwolscine)
T3 construct: expressed in transfected cells
T3 sequence (P18825 1-462): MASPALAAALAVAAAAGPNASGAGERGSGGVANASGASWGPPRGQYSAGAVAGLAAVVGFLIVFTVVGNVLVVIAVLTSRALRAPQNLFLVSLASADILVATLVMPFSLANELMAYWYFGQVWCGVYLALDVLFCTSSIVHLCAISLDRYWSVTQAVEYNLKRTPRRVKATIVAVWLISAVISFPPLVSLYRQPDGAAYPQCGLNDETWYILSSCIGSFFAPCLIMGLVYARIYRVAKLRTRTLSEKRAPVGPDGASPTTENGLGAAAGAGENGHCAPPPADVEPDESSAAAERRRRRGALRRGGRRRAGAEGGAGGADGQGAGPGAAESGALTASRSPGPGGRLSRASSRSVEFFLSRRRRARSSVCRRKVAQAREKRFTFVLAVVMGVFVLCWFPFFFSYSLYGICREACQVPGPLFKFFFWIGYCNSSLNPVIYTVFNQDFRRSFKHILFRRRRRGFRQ
Procedure: as §1, §3, §4, §2

[4] = read-out: 5HTT pIC50 (converted)
[5] = read-out: hα2B pIC50 (converted)
[6] = read-out: hα2C pIC50 (converted)
[7] = membranes of CHO cells expressing human α2B receptor, [3H]raulwolscine 1 nM, read-out: hα2B pIC50 (converted)
[8] = membranes of CHO cells expressing human α2C receptor, [3H]raulwolscine 1 nM, read-out: hα2C pIC50 (converted)
[9] = human platelet membranes, [3H]paroxetine 0.5 nM
[10] = membranes of CHO cells expressing human α2B receptor, [3H]raulwolscine 1 nM
[11] = membranes of CHO cells expressing human α2C receptor, [3H]raulwolscine 1 nM
[12] = hα2C pIC50, membranes of CHO cells expressing human α2C receptor, [3H]raulwolscine 1 nM
[13] = human platelet membranes, [3H]paroxetine 0.5 nM, read-out: 5HTT pIC50 (converted)

T1 sequence (P31645 whole entry): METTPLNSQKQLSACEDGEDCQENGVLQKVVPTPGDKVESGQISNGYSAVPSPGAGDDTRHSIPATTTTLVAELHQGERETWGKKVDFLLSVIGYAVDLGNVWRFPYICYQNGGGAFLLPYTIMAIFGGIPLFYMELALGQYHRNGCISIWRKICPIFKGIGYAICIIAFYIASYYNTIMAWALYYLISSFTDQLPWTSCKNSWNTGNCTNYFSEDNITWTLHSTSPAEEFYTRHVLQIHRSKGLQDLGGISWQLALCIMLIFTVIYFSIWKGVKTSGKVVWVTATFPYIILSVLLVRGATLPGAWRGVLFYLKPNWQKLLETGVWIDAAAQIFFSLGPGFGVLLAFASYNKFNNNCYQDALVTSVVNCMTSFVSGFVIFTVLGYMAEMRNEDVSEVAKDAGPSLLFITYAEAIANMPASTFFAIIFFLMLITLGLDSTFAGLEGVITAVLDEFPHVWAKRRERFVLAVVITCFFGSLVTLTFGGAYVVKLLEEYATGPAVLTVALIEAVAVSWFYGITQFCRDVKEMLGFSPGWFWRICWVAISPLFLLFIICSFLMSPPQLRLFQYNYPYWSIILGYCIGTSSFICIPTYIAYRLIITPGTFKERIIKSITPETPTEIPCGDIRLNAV

## COc1cc2c(cc1OC)C1=NOC(CN3CCN(C/C=C/c4ccccc4)CC3)C1CO2 (single isomer, unassigned) [Compound 1]
[1]; [4]
  IC50: 5.13 nM
[2]; [5]
  IC50: 3.24 nM

## COc1cc2c(cc1OC)C1=NOC(CN3CCN(C/C=C/c4ccccc4)CC3)C1CO2 (single isomer, unassigned) [Compound 8]
[1]; [4]
  IC50: 17.8 nM
[2]; [5]
  IC50: 7.24 nM

## COc1cc2c(cc1OC)C1=NOC(CN3CCN(Cc4ccc5ccccc5c4)CC3)C1CO2 (single isomer, unassigned) [Compound 16]
[1]; [4]
  IC50: 3.72 nM
[2]; [5]
  IC50: 6.17 nM
[3]; [6]
  IC50: 6.76 nM

## COc1cc2c(cc1OC)C1=NOC(CN3CCN(C/C(C)=C/c4ccccc4)CC3)C1CO2 (single isomer, unassigned) [Compound 129]
[2]; [7]
  IC50: 9.77 nM
[3]; [8]
  IC50: 6.76 nM

## COc1cc2c(cc1OC)C1=NOC(CN3CCN(CC(C)=Cc4ccccc4)CC3)C1CN2 (single isomer, unassigned) [Compound 253]
[1]; [9]
  5HTT pIC50: 6.60
[2]; [10]
  hα2B pIC50: 7.94
[3]; [11]
  hα2C pIC50: 7.98

## COc1cc2c(cc1OC)C1=NOC(CN3CCN(C/C=C(\C)c4ccccc4)CC3)C1CO2 (single isomer, unassigned) [Compound 320]
[1]; [4]
  IC50: 32.4 nM
[2]; [5]
  IC50: 20 nM
[3]; [6]
  IC50: 6.76 nM

## CCNC(=O)Oc1cc2c(cc1OC)C1=NOC(CN3CCN(C/C(C)=C/c4ccccc4)CC3)C1CO2 (single isomer, unassigned) [Compound 340]
[1]; 5HTT pIC50
  IC50: 22.9 nM
[3]; [12]
  IC50: 3.8 nM

## c1ccc2c(c1)NCC1C2=NOC1CN1CCN(Cc2ccc3ccccc3c2)CC1 (stereo not shown) [Compound 9]
[1]; [13]
  IC50: 1.58 nM
[2]; [7]
  IC50: 4.68 nM
[3]; [8]
  IC50: 107 nM

## COc1cc2c(cc1OC)C1=NOC(CN3CCN(Cc4ccc5ccccc5c4)CC3)C1CN2 (stereo not shown) [Compound 15]
[1]; [4]
  IC50: 17 nM
[2]; [7]
  IC50: 14.5 nM
[3]; [8]
  IC50: 11.5 nM

## COc1cc2c(cc1OC)C1=NOC(CN3CCN(Cc4ccccc4C(F)(F)F)CC3)C1CO2 (stereo not shown) [Compound 79]
[1]; [13]
  IC50: 1000 nM
[3]; [8]
  IC50: 1000 nM

## COc1cc2c(cc1OC)C1=NOC(CN3CCN(Cc4ccc([N+](=O)[O-])cc4)CC3)C1CO2 (stereo not shown) [Compound 81]
[1]; [13]
  IC50: 145 nM
[3]; [8]
  IC50: 1000 nM

## COc1cc2c(cc1OC)C1=NOC(CN3CCN(Cc4cccc(C#N)c4)CC3)C1CO2 (stereo not shown) [Compound 97]
[1]; [13]
  IC50: 355 nM
[3]; [8]
  IC50: 1000 nM

## COc1ccc2c(c1)OCC1C2=NOC1CN1CCN(CC=Cc2ccccc2)CC1 (stereo not shown) [Compound 217]
[1]; [13]
  IC50: 53.7 nM
[2]; [7]
  IC50: 6.17 nM
[3]; [6]
  IC50: 14.1 nM

## O=C(N1CC2C(=NOC2CN2CCN(CC=Cc3ccccc3)CC2)c2ccccc21)C(F)(F)F (stereo not shown) [Compound 224]
[1]; [9]
  5HTT pIC50: 7.31
[2]; [10]
  hα2B pIC50: 7.66
[3]; [11]
  hα2C pIC50: 7.13

## CCOC(=O)N1CC2C(=NOC2CN2CCN(CC=Cc3ccccc3)CC2)c2ccccc21 (stereo not shown) [Compound 226]
[1]; [9]
  5HTT pIC50: 8.08
[2]; [10]
  hα2B pIC50: 7.09
[3]; [11]
  hα2C pIC50: 6.96

## CC(=Cc1ccccc1)CN1CCN(CC2ON=C3c4ccccc4NCC32)CC1 (stereo not shown) [Compound 234]
[1]; [9]
  5HTT pIC50: 7.71
[2]; [10]
  hα2B pIC50: 8.88
[3]; [11]
  hα2C pIC50: 8.41

## CC(=Cc1ccccc1)CN1CCN(CC2ON=C3c4ccc(O)cc4OCC32)CC1 (stereo not shown) [Compound 237]
[1]; [13]
  IC50: 11.5 nM
[2]; [7]
  IC50: 1.26 nM
[3]; [8]
  IC50: 1.17 nM

## CCNC(=O)Oc1ccc2c(c1)OCC1C2=NOC1CN1CCN(CC(C)=Cc2ccccc2)CC1 (stereo not shown) [Compound 238]
[1]; 5HTT pIC50
  IC50: 8.51 nM
[2]; hα2B pIC50, membranes of CHO cells expressing human α2B receptor, [3H]raulwolscine 1 nM
  IC50: 2.4 nM
[3]; [12]
  IC50: 2.57 nM

## COCCOc1ccc2c(c1)OCC1C2=NOC1CN1CCN(CC(C)=Cc2ccccc2)CC1 (stereo not shown) [Compound 239]
[1]; [13]
  IC50: 14.1 nM
[2]; [7]
  IC50: 2.4 nM
[3]; [8]
  IC50: 0.288 nM

## CC(=Cc1ccccc1)CN1CCN(CC2ON=C3c4ccc(OCCN(C)C)cc4OCC32)CC1 (stereo not shown) [Compound 242]
[1]; [13]
  IC50: 11.2 nM
[2]; [7]
  IC50: 0.363 nM

## CC(=Cc1ccccc1)CN1CCN(CC2ON=C3c4ccc(OC5CCCC5)cc4OCC32)CC1 (stereo not shown) [Compound 243]
[1]; [9]
  5HTT pIC50: 6.75
[2]; [10]
  hα2B pIC50: 7.77
[3]; [11]
  hα2C pIC50: 8.29

## CC(=Cc1ccccc1)CN1CCN(CC2ON=C3c4ccc(OC(=O)C5CC5)cc4OCC32)CC1 (stereo not shown) [Compound 250]
[1]; [13]
  IC50: 81.3 nM
[2]; [7]
  IC50: 6.76 nM
[3]; [6]
  IC50: 3.31 nM

## C=CC(=O)Oc1ccc2c(c1)OCC1C2=NOC1CN1CCN(CC(C)=Cc2ccccc2)CC1 (stereo not shown) [Compound 251]
[1]; [9]
  5HTT pIC50: 6.89
[2]; [10]
  hα2B pIC50: 8.31
[3]; [11]
  hα2C pIC50: 8.26

## COc1cc2c(cc1OC)C1=NOC(CN3CCN(Cc4ccc5ccccc5c4)CC3)C1CN2 (stereo not shown) [Compound 272]
[1]; [4]
  IC50: 4.79 nM
[2]; [7]
  IC50: 26.9 nM
[3]; [8]
  IC50: 135 nM

## CC(=Cc1ccccc1)CN1CCN(CC2ON=C3c4ccc(OC(=O)C(C)(C)C)cc4OCC32)CC1 (stereo not shown) [Compound 329]
[1]; [4]
  IC50: 33.1 nM
[2]; [7]
  IC50: 27.5 nM
[3]; [6]
  IC50: 18.2 nM

## COc1cc2c(cc1OC)C1=NOC(CN3CCN(CC=Cc4cccc(F)c4)CC3)C1CN2 (stereo not shown) [Compound 351]
[1]; [9]
  5HTT pIC50: 8.06
[2]; [10]
  hα2B pIC50: 8.16
[3]; [11]
  hα2C pIC50: 8.19

## COc1cc2c(cc1OC)C1=NOC(CN3CCN(CC=C(C)c4ccccc4)CC3)C1CN2 (stereo not shown) [Compound 379]
[1]; [13]
  IC50: 34.7 nM
[2]; [7]
  IC50: 19.5 nM
[3]; [8]
  IC50: 40.7 nM
